# Assay results taken from PubChem BioAssay (NCI).
#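 Briefly, cells in 96-well plates were exposed to five compound concentrations for 48 h, and endpoints were estimated by linear interpolation. GI50: concentration for 50% inhibition of growth. Definition used: TGI = concentration required for complete inhibition of growth.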
# Experiments:
# Assay in all cases: NCI anticancer screen, dose series, 48 h
# HCC-2998 colon = test system: HCC-2998 colon
# 786-0 renal = test system: 786-0 renal
# NCI-H522 lung = test system: NCI-H522 lung
# A549 NSCLC = test system: A549 NSCLC
# NCI-H23 lung = test system: NCI-H23 lung
# MALME-3M melanoma = test system: MALME-3M melanoma
# SN12C renal = test system: SN12C renal
# NCI-H460 lung = test system: NCI-H460 lung
# OVCAR-5 ovarian = test system: OVCAR-5 ovarian
# K-562 leukemia = test system: K-562 leukemia
compound,measurement,setting,value
O=C1CCC2(c3ccccc3)Nc3ncccc3N12 (stereo not given),TGI,HCC-2998 colon,> 100 µM
same,TGI,786-0 renal,> 100 µM
same,TGI,NCI-H522 lung,> 100 µM
same,TGI,A549 NSCLC,> 100 µM
same,TGI,NCI-H23 lung,> 100 µM
same,TGI,MALME-3M melanoma,> 100 µM
same,TGI,SN12C renal,> 100 µM
same,TGI,NCI-H460 lung,> 100 µM
same,TGI,OVCAR-5 ovarian,> 100 µM
same,TGI,K-562 leukemia,> 100 µM
CCC(/C=C/c1ccccc1)=N\Nc1ccc(Cl)c(Cl)c1,TGI,HCC-2998 colon,65 µM
same,TGI,786-0 renal,> 100 µM
same,TGI,NCI-H522 lung,46.1 µM
same,TGI,A549 NSCLC,> 100 µM
same,TGI,NCI-H23 lung,> 100 µM
same,TGI,MALME-3M melanoma,78.9 µM
same,TGI,SN12C renal,74.8 µM
same,TGI,NCI-H460 lung,> 100 µM
same,TGI,OVCAR-5 ovarian,> 100 µM
same,TGI,K-562 leukemia,> 100 µM
COc1cc(C)c(O)c(C(=O)O)c1,TGI,HCC-2998 colon,> 100 µM
same,TGI,786-0 renal,> 100 µM
same,TGI,NCI-H522 lung,> 100 µM
same,TGI,A549 NSCLC,> 100 µM
same,TGI,NCI-H23 lung,> 100 µM
same,TGI,MALME-3M melanoma,> 100 µM
same,TGI,SN12C renal,> 100 µM
same,TGI,NCI-H460 lung,> 100 µM
same,TGI,OVCAR-5 ovarian,> 100 µM
same,TGI,K-562 leukemia,> 100 µM
CC(C)c1ccc(Nc2nccc(-c3cnn4ncccc34)n2)cc1,GI50,HCC-2998 colon,0.635 µM
same,TGI,HCC-2998 colon,> 10.2 µM
same,GI50,786-0 renal,0.801 µM
same,TGI,786-0 renal,4.88 µM
same,GI50,NCI-H522 lung,0.564 µM
same,TGI,NCI-H522 lung,3.35 µM
same,GI50,A549 NSCLC,0.6 µM
same,TGI,A549 NSCLC,3.65 µM
same,GI50,NCI-H23 lung,0.483 µM
same,TGI,NCI-H23 lung,> 7 µM
same,GI50,MALME-3M melanoma,1.04 µM
same,TGI,MALME-3M melanoma,4.01 µM
same,GI50,SN12C renal,0.66 µM
same,TGI,SN12C renal,> 17.9 µM
same,GI50,NCI-H460 lung,0.496 µM
same,TGI,NCI-H460 lung,4.95 µM
same,GI50,OVCAR-5 ovarian,0.44 µM
same,TGI,OVCAR-5 ovarian,> 12.3 µM
same,GI50,K-562 leukemia,1.19 µM
same,TGI,K-562 leukemia,> 25 µM
CC(=O)Nc1ccc(/C=C/C(=O)c2sc(-c3nc(C)c(C(=O)/C=C/c4ccc(NC(C)=O)cc4)s3)nc2C)cc1,TGI,HCC-2998 colon,> 100 µM
same,TGI,786-0 renal,> 100 µM
same,TGI,NCI-H522 lung,> 100 µM
same,TGI,A549 NSCLC,> 100 µM
same,TGI,NCI-H23 lung,> 100 µM
same,TGI,MALME-3M melanoma,> 100 µM
same,TGI,SN12C renal,> 100 µM
same,TGI,NCI-H460 lung,> 100 µM
same,TGI,OVCAR-5 ovarian,> 100 µM
same,TGI,K-562 leukemia,> 100 µM
CC1(C)CC[C@]2(C(=O)N3CCOCC3)CC[C@]3(C)C(=CC[C@@H]4[C@@]5(C)C/C(=C/c6ccncc6)C(=O)C(C)(C)[C@@H]5CC[C@]43C)[C@@H]2C1,GI50,HCC-2998 colon,1.66 µM
same,TGI,HCC-2998 colon,7.82 µM
same,GI50,786-0 renal,1.66 µM
same,TGI,786-0 renal,12.4 µM
same,GI50,NCI-H522 lung,1.3 µM
same,TGI,NCI-H522 lung,6.72 µM
same,GI50,A549 NSCLC,1.22 µM
same,TGI,A549 NSCLC,> 100 µM
same,GI50,NCI-H23 lung,2.41 µM
same,TGI,NCI-H23 lung,> 100 µM
same,GI50,MALME-3M melanoma,1.57 µM
same,TGI,MALME-3M melanoma,4.59 µM
same,GI50,SN12C renal,2.37 µM
same,TGI,SN12C renal,20.6 µM
same,GI50,NCI-H460 lung,1.32 µM
same,TGI,NCI-H460 lung,4.17 µM
same,GI50,OVCAR-5 ovarian,2.27 µM
same,TGI,OVCAR-5 ovarian,9.45 µM
same,GI50,K-562 leukemia,0.637 µM
same,TGI,K-562 leukemia,> 100 µM
CCOC(=O)C1=C(Nc2cccc3ccccc23)OC/C1=N\NC(=O)c1ccccc1O,TGI,HCC-2998 colon,> 100 µM
same,TGI,786-0 renal,> 100 µM
same,TGI,NCI-H522 lung,24.8 µM
same,TGI,A549 NSCLC,> 100 µM
same,TGI,NCI-H23 lung,15.3 µM
same,TGI,MALME-3M melanoma,> 100 µM
same,TGI,SN12C renal,> 88 µM
same,TGI,NCI-H460 lung,> 71.4 µM
same,TGI,OVCAR-5 ovarian,> 100 µM
same,TGI,K-562 leukemia,> 100 µM
Nc1c(C(=O)Nc2ccccc2)sc2nc3c(cc12)CN(Cc1ccccc1)CC3,GI50,HCC-2998 colon,76.1 µM
same,TGI,HCC-2998 colon,> 100 µM
same,GI50,786-0 renal,13 µM
same,TGI,786-0 renal,> 100 µM
same,GI50,NCI-H522 lung,32.5 µM
same,TGI,NCI-H522 lung,> 100 µM
same,GI50,A549 NSCLC,13.9 µM
same,TGI,A549 NSCLC,> 100 µM
same,GI50,NCI-H23 lung,21.7 µM
same,TGI,NCI-H23 lung,> 100 µM
same,GI50,MALME-3M melanoma,3.8 µM
same,TGI,MALME-3M melanoma,> 100 µM
same,GI50,SN12C renal,65.7 µM
same,TGI,SN12C renal,> 100 µM
same,GI50,NCI-H460 lung,7.51 µM
same,TGI,NCI-H460 lung,> 100 µM
same,GI50,OVCAR-5 ovarian,> 100 µM
same,TGI,OVCAR-5 ovarian,> 100 µM
same,GI50,K-562 leukemia,9.1 µM
same,TGI,K-562 leukemia,> 100 µM
